Drawing on patent US9145415B2, “Nitrogen-containing heterocyclic compound or salt thereof” (FUJIFILM Corporation, priority 2012, dated 2015), this text covers IC50 for 28 compounds.

For experiment [1], the target named is T1, human FLT3 protein (FLT3 (WT)) (Homo sapiens, UniProt P36888).
T1 construct: human FLT3 protein (intracellular region, 564 to 993 aa); GST; purchased Carna Biosciences; host or cells: baculovirus expression system
T1 sequence (P36888 564-993): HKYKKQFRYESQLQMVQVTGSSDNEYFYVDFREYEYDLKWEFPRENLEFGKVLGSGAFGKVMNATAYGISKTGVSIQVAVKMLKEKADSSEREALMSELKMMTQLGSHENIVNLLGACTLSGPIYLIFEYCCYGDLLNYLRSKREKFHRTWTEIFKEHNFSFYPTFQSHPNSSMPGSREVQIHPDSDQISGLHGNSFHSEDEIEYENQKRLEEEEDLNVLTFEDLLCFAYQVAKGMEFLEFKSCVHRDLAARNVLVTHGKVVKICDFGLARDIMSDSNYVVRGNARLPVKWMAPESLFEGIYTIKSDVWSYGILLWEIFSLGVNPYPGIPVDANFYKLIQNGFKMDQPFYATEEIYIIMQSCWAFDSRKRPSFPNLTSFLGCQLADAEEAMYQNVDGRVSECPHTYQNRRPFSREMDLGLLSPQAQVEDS
Kind of experiment: FLT3 inhibition test (FLT3 enzyme inhibition, time-resolved fluorescence of substrate peptide phosphorylation). The note with it: GST-fused human FLT3 (564 to 993 aa), ATP 50 μM; read-out: FLT3 (WT) enzyme inhibition activity. The class given is biochemical. The procedure, abridged:
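Substrate peptide phosphorylation detected by time-resolved fluorescence after a 30 min kinase reaction at 25° C with 50 μM ATP (final). Beforehand, compound and FLT3 (WT, 1.2 μg) stood 15 min at 25° C in HEPES buffer pH 7.5 containing MgCl2, NaCl, BSA and DTT.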

In another experiment the test system is Molm-13 cells. Kind of experiment: Leukemia cell proliferation inhibition test (ATPlite), Molm-13. The class given is cell-based. The note with it: Homo sapiens, MOLM-13, 72 h, Molm-13, 72 hours culture, ATPlite; GI50 per method; read-out: MOLM13 cell proliferation inhibition effect. The procedure, abridged: (§1)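 Proliferation inhibition is quantified from total cellular ATP, measured by luciferase luminescence, after cells grow with compound for 72 hours. The GI50 is the concentration giving half the signal of the 0.1% DMSO control, fitted to a sigmoid curve from duplicate points.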
A general note: In ATP-based viability assays light output follows the ATP content of the culture.

The test system of the next experiment is MV4-11 cells. Kind of experiment: Leukemia cell proliferation inhibition test (ATPlite), MV4-11. The class given is cell-based. Particulars: Homo sapiens, MV4-11, 72 h, MV4-11, 72 hours culture, ATPlite; GI50 per method; read-out: MV4-11 cell proliferation inhibition effect. A digest of the protocol:
as §1

The structures appear in SMILES notation. Some results are limits rather than exact numbers.

Consider `CCCNc1nc(NC)ncc1C#CCCCNC(=O)[C@H](C)N(C)C(=O)/C=C/CN(C)C` [Compound 11-1, (S,E)-4-(dimethylamino)-N-methyl-N-(1-((5-(2-(methylamino)-4-(propylamino)pyrimidin-5-yl)-4-pentyn-1-yl)amino)-1-oxopropan-2-yl)-2-butenamide], for which the IC50 (in experiment [1]; in the experiment with Molm-13 cells; in the experiment with MV4-11 cells) was 0.01 to 0.1 µM throughout.

`CCCNc1nc(NCC)ncc1C#CCCCNC(=O)[C@H](C)N(C)C(=O)/C=C/CN(C)C` [Compound 11-3]: the IC50 in experiment [1] is 0.01 to 0.1 µM; in the experiment on Molm-13 cells, 0.1 to 1 µM; with MV4-11 cells, 0.1 to 1 µM.

Regarding `C[C@@H](C(=O)NCCCC#Cc1cnc(Nc2ccc(F)nc2)nc1N1CCCC1)N(C)C(=O)/C=C/CN(C)C` [Compound 11-8], the IC50 in experiment [1] was less than 0.01 µM; in the experiment with Molm-13 cells, 0.01 to 0.1 µM; in the experiment on MV4-11 cells it was 0.01 to 0.1 µM.

For `C[C@@H](C(=O)NCCCC#Cc1cnc(Nc2ccc(F)nc2)nc1N1CCOCC1)N(C)C(=O)/C=C/CN(C)C` [Compound 11-9], the IC50 in experiment [1] was less than 0.01 µM; in the experiment with Molm-13 cells it was 0.01 to 0.1 µM; with MV4-11 cells, 0.01 to 0.1 µM.

In the case of `CCCNc1nc(Nc2cccc(OC(F)(F)F)c2)ncc1C#CCCCNC(=O)[C@H](C)N(C)C(=O)/C=C/CN(C)C` [Compound 11-10], the IC50 in experiment [1] was less than 0.01 µM; with Molm-13 cells, 0.01 to 0.1 µM; with MV4-11 cells, less than 0.01 µM.

For `CCCNc1nc(Nc2cccc(C(F)(F)F)c2)ncc1C#CCCCNC(=O)[C@H](C)N(C)C(=O)/C=C/CN(C)C` [Compound 11-11], the IC50 in experiment [1] was less than 0.01 µM; in the experiment on Molm-13 cells, 0.01 to 0.1 µM; with MV4-11 cells, 0.01 to 0.1 µM.

Take `CCCNc1nc(Nc2ccccc2)ncc1C#CCCCNC(=O)[C@H](C)N(C)C(=O)/C=C/CN(C)C` [Compound 12-1, (S,E)-4-(dimethylamino)-N-methyl-N-(1-oxo-1-((5-(2-(phenylamino)-4-(propylamino)pyrimidin-5-yl)-4-pentyn-1-yl)amino)propan-2-yl)-2-butenamide]: the IC50 (in experiment [1]; with Molm-13 cells; in the experiment on MV4-11 cells) was less than 0.01 µM each time.

As to `CCCNc1nc(Nc2cccc(Cl)c2)ncc1C#CCCCNC(=O)[C@H](C)N(C)C(=O)/C=C/CN(C)C` [Compound 12-2, (S,E)-N-(1-((5-(2-((3-chlorophenyl)amino)-4-(propylamino)pyrimidin-5-yl)-4-pentyn-1-yl)amino)-1-oxopropan-2-yl)-4-(dimethylamino)-N-methyl-2-butenamide], the IC50 was less than 0.01 µM in experiment [1], 0.01 to 0.1 µM with Molm-13 cells and less than 0.01 µM in the experiment with MV4-11 cells.

Consider `CCCNc1nc(Nc2ccc(F)cc2)ncc1C#CCCCNC(=O)[C@H](C)N(C)C(=O)/C=C/CN(C)C` [Compound 12-3], for which the IC50 (in experiment [1]; in the experiment on Molm-13 cells; in the experiment on MV4-11 cells) was less than 0.01 µM in each case.

With `CCCNc1nc(Nc2ccc(C(F)(F)F)cc2)ncc1C#CCCCNC(=O)[C@H](C)N(C)C(=O)/C=C/CN(C)C` [Compound 12-5], the results for the IC50 (in experiment [1]; in the experiment with Molm-13 cells; with MV4-11 cells) were less than 0.01 µM, 0.01 to 0.1 µM and 0.01 to 0.1 µM, respectively.

For the compound `CCCNc1nc(Nc2ccc(OC(F)(F)F)cc2)ncc1C#CCCCNC(=O)[C@H](C)N(C)C(=O)/C=C/CN(C)C` [Compound 12-6], the IC50 lay in the range of 0.01 to 0.1 µM in experiment [1], 0.1 to 1 µM with Molm-13 cells and 0.01 to 0.1 µM in the experiment on MV4-11 cells.

As to `CCCNc1nc(Nc2ccc(C)cc2)ncc1C#CCCCNC(=O)[C@H](C)N(C)C(=O)/C=C/CN(C)C` [Compound 12-9], the IC50 in experiment [1] is less than 0.01 µM; in the experiment on Molm-13 cells, 0.01 to 0.1 µM; in the experiment on MV4-11 cells, 0.01 to 0.1 µM.

Take `CCCNc1nc(Nc2ccccc2F)ncc1C#CCCCNC(=O)[C@H](C)N(C)C(=O)/C=C/CN(C)C` [Compound 12-10]: the IC50 was less than 0.01 µM in experiment [1], 0.1 to 1 µM with Molm-13 cells and 0.01 to 0.1 µM with MV4-11 cells.

In the case of `CCCNc1nc(Nc2ccc(Cn3cncn3)cc2)ncc1C#CCCCNC(=O)CN(C)C(=O)/C=C/CN(C)C` [Compound 12-11], the IC50 (in experiment [1]; in the experiment with Molm-13 cells; in the experiment on MV4-11 cells) was 0.01 to 0.1 µM in each case.

On to `CCCNc1nc(Nc2ccc(Cn3ccnn3)cc2)ncc1C#CCCCNC(=O)CN(C)C(=O)/C=C/CN(C)C` [Compound 12-12], for which the IC50 in experiment [1] was 0.01 to 0.1 µM; in the experiment on Molm-13 cells, less than 0.01 µM; with MV4-11 cells, 0.01 to 0.1 µM.

Turning to `C[C@@H](C(=O)Nc1cccc(C#Cc2cnc(NCCc3ccncc3)nc2N2CCOCC2)c1)N(C)C(=O)/C=C/CN(C)C` [Compound 12-13, (S,E)-4-(dimethylamino)-N-methyl-N-(1-((3-((4-morpholino-2-((2-(pyridin-4-yl)ethyl)amino)pyrimidin-5-yl)ethynyl)phenyl)amino)-1-oxopropan-2-yl)-2-butenamide], the IC50 (in experiment [1]; in the experiment with Molm-13 cells; in the experiment on MV4-11 cells) was less than 0.01 µM each time.

For `CCCN(C)c1nc(NCCc2ccncc2)ncc1C#Cc1cccc(NC(=O)[C@H](C)N(C)C(=O)/C=C/CN(C)C)c1` [Compound 12-14, (S,E)-4-(dimethylamino)-N-methyl-N-(1-((3-((4-(methyl(propyl)amino)-2-((2-(pyridin-4-yl)ethyl)amino)pyrimidin-5-yl)ethynyl)phenyl)amino)-1-oxopropan-2-yl)-2-butenamide], the IC50 (in experiment [1]; in the experiment on Molm-13 cells; in the experiment with MV4-11 cells) was less than 0.01 µM in each case.

On to `CCCNc1nc(Nc2cccc(F)c2)ncc1C#C[C@@H]1CCC[C@H](NC(=O)[C@H](C)N(C)C(=O)/C=C/CN(C)C)C1` [Compound 13-1, (E)-4-(dimethylamino)-N—((S)-1-(((1S,3R)-3-((2-((3-fluorophenyl)amino)-4-(propylamino)pyrimidin-5-yl)ethynyl)cyclohexyl)amino)-1-oxopropan-2-yl)-N-methyl-2-butenamide], for which the IC50 (in experiment [1]; in the experiment on Molm-13 cells; with MV4-11 cells) was less than 0.01 µM each time.

Regarding `CCCNc1nc(Nc2ccc(C#N)cc2)ncc1C#C[C@H]1CCC[C@@H](NC(=O)[C@H](C)N(C)C(=O)/C=C/CN(C)C)C1` [Compound 13-3], the IC50 in experiment [1] was less than 0.01 µM; with Molm-13 cells, 0.01 to 0.1 µM; in the experiment with MV4-11 cells, less than 0.01 µM.

Take `CCCNc1nc(Nc2ccc(C#N)cc2)ncc1C#C[C@@H]1CCC[C@H](NC(=O)[C@H](C)N(C)C(=O)/C=C/CN(C)C)C1` [Compound 13-4]: the IC50 (in experiment [1]; with Molm-13 cells; with MV4-11 cells) was less than 0.01 µM throughout.

Take `CCCNc1nc(Nc2ccc(F)nc2)ncc1C#C[C@@H]1CCC[C@H](NC(=O)[C@H](C)N(C)C(=O)/C=C/CN(C)C)C1` [Compound 13-5]: the IC50 (in experiment [1]; in the experiment on Molm-13 cells; in the experiment on MV4-11 cells) was less than 0.01 µM throughout.

As for `CCCNc1nc(Nc2ccc(C#N)cc2)ncc1C#C[C@@H]1CCC[C@H](NC(=O)CN(C)C(=O)/C=C/CN(C)C)C1` [Compound 13-6], the IC50 (in experiment [1]; in the experiment on Molm-13 cells; in the experiment on MV4-11 cells) was less than 0.01 µM throughout.

For `CCCNc1nc(Nc2cccc(C#N)c2)ncc1C#C[C@@H]1CCC[C@H](NC(=O)[C@H](C)N(C)C(=O)/C=C/CN(C)C)C1` [Compound 13-7], the IC50 (in experiment [1]; in the experiment on Molm-13 cells; in the experiment on MV4-11 cells) was less than 0.01 µM each time.

Consider `CCCNc1nc(Nc2cccc(F)c2)ncc1C#C[C@H]1C[C@@H](NC(=O)[C@H](C)N(C)C(=O)/C=C/CN(C)C)C1` [Compound 13-8, (E)-4-(Dimethylamino)-N—((S)-1-(((1S,3R)-3-((2-((3-fluorophenyl)amino)-4-(propylamino)pyrimidin-5-yl)ethynyl)cyclobutyl)amino)-1-oxopropan-2-yl)-N-methyl-2-butenamide], for which the IC50 (in experiment [1]; in the experiment on Molm-13 cells; in the experiment with MV4-11 cells) was less than 0.01 µM throughout.

`CCCNc1nc(Nc2ccc(C#N)cc2)ncc1C#C[C@H]1C[C@@H](NC(=O)[C@H](C)N(C)C(=O)/C=C/CN(C)C)C1` [Compound 13-9]: the IC50 (in experiment [1]; in the experiment on Molm-13 cells; in the experiment on MV4-11 cells) was less than 0.01 µM in each case.

With `CCCNc1nc(Nc2cccc(F)c2)ncc1C#C[C@@H]1CC[C@H](NC(=O)[C@H](C)N(C)C(=O)/C=C/CN(C)C)C1` [Compound 13-10], the IC50 (in experiment [1]; with Molm-13 cells; in the experiment on MV4-11 cells) was less than 0.01 µM throughout.

For `CCCNc1nc(Nc2ccc(C#N)cc2)ncc1C#C[C@@H]1CC[C@H](NC(=O)[C@H](C)N(C)C(=O)/C=C/CN(C)C)C1` [Compound 13-11], the IC50 (in experiment [1]; in the experiment on Molm-13 cells; in the experiment on MV4-11 cells) was less than 0.01 µM in each case.

On to `CCCNc1nc(Nc2ccc(C#N)cc2)ncc1C#C[C@H]1CC[C@H](NC(=O)[C@H](C)N(C)C(=O)/C=C/CN(C)C)C1` [Compound 13-12], for which the IC50 (in experiment [1]; in the experiment on Molm-13 cells; in the experiment on MV4-11 cells) was less than 0.01 µM in each case.
